Measured values from patent US20240269139A1, “COMPOUNDS FOR TARGETED PROTEIN DEGRADATION OF KINASES” (DANA-FARBER CANCER INSTITUTE, INC., priority 2020, published 2024).
Several values for one entry are separate records, joined by “and”; a condition that tells them apart may be missing. Equal entries are not always repeated. Where two headings read alike, the source gives them in different places.

Tests used:
Type in all cases: cell-based
[1] = test system: protein kinases (human kinome)
[2] = target: protein kinases (human kinome) (Homo sapiens, UniProt Q9H0K1); settings: for logFC of SIK2: Accession Q9H0K1; for logFC SIK2 (Q9H0K1): direction of change down
Sequence of protein kinases (human kinome) (Homo sapiens, UniProt Q9H0K1) (Q9H0K1 whole entry): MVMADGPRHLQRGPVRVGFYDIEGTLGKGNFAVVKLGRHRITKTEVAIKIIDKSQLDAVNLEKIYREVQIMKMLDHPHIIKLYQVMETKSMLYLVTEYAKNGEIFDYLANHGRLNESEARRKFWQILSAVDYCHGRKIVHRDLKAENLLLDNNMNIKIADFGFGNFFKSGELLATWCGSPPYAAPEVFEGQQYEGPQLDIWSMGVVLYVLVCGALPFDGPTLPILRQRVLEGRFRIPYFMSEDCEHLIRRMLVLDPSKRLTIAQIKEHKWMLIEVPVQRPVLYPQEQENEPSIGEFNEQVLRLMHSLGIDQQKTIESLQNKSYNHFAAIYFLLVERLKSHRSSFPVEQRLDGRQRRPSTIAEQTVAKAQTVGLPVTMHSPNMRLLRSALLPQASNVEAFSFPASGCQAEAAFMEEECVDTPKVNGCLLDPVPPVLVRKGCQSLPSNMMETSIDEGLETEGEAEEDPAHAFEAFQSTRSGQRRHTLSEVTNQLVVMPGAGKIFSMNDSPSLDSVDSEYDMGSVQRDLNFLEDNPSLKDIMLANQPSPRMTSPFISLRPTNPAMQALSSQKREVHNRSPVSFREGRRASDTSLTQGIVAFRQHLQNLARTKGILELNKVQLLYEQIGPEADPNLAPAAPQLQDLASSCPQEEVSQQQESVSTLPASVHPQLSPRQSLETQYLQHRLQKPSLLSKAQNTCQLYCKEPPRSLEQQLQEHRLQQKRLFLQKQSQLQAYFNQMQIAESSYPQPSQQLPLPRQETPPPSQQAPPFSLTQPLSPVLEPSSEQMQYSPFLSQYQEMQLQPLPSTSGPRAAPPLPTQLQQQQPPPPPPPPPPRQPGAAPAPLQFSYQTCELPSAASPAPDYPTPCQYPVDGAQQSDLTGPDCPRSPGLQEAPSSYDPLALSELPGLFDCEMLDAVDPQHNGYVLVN

[3] = target: T1, protein kinases (human kinome) (Homo sapiens, UniProt O75385); settings: for logFC: ULK1 (O75385) protein abundance, degrader vs DMSO, down; for logFC ULK1: ULK1 O75385
T1 sequence (O75385 1-1050): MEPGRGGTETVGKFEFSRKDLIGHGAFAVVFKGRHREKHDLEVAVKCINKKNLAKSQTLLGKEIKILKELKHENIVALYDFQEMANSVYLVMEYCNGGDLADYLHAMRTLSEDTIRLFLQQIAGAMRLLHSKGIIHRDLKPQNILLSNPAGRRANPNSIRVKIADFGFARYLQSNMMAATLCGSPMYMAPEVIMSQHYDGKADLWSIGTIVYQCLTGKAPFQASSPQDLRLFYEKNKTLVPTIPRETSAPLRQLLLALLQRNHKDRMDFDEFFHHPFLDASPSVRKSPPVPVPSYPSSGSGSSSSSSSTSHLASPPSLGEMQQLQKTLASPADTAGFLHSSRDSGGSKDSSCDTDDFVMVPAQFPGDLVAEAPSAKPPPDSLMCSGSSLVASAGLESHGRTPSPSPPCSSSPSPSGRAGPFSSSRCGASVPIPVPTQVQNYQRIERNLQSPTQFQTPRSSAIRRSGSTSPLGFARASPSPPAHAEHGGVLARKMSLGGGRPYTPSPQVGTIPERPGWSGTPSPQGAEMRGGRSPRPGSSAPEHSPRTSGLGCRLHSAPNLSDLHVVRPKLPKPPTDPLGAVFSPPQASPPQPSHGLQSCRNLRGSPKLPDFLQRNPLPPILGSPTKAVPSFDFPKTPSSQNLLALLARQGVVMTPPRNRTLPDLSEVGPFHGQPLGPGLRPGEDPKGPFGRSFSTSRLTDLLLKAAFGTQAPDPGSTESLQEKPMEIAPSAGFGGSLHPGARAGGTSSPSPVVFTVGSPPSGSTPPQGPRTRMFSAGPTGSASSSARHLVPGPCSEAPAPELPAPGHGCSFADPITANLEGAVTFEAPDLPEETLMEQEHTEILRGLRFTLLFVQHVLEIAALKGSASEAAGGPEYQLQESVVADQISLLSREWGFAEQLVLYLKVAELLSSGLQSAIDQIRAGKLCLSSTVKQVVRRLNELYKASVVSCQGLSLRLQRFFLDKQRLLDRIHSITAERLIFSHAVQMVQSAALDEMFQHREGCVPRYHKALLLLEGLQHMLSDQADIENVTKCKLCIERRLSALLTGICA

[4] = target: protein kinases (human kinome) (Homo sapiens, UniProt P30291); settings: for logFC of WEE1: WEE1 P30291-1
Sequence of protein kinases (human kinome) (Homo sapiens, UniProt P30291) (P30291 whole entry): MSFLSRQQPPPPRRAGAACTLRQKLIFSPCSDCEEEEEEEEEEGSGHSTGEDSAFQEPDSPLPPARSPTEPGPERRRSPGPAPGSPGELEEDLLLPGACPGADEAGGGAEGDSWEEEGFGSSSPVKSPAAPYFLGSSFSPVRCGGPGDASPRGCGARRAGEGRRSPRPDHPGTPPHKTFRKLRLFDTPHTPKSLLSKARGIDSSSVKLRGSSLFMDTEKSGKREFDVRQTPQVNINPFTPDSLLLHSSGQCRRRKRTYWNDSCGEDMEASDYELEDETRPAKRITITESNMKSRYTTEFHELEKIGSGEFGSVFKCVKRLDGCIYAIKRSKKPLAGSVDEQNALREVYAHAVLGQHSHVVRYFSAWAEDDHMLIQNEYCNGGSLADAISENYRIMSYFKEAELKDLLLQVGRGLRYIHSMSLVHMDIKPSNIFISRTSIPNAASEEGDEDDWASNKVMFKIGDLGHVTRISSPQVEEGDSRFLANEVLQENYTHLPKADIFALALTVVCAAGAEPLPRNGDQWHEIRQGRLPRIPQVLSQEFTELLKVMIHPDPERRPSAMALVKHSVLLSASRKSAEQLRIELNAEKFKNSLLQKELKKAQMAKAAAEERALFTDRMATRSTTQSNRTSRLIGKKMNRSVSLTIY

[5] = AURKB Q96GD4-5, experiment wp108
[6] = AURKB Q96GD4-5, experiment wp131

## CS(=O)(=O)Nc1cccc(-c2csc3cnc(Nc4ccc(N5CCN(CCCCCOc6cccc7c6C(=O)N(C6CCC(=O)NC6=O)C7=O)CC5)cc4)nc23)c1 (stereo not shown) [DB0614, N-(3-(2-((4-(4-(5-((2-(2,6-Dioxopiperidin-3-yl)-1,3-dioxoisoindolin-4-yl)oxy)pentyl)piperazin-1-yl)phenyl)amino)thieno[3,2-d]pyrimidin-7-yl)phenyl)methanesulfonamide]
[1]; CAMKK1 (Q8N5S9-2), experiment wp045
  logFC: −0.6487
[1]; Experiment wp045
  logFC of CAMKK1 (Q8N5S9-2): −0.6487
[1]; Experiment wp045, direction down
  logFC MAPK8 (P45983-4): −0.6882
[1]; Experiment wp117
  logFC of MAPK8 (P45983-2): −0.6328
[1]; Experiment wp117, direction down
  logFC MAPK8 (P45983-2): −0.6328
[1]; LCK, accession P06239-3, experiment wp045, direction of change down
  logFC LCK: −0.33
[1]; MAPK8 P45983-4, experiment wp045
  logFC MAPK8: −0.6882
[1]; PTK2B (Q14289-2), experiment wp117, direction down
  logFC: −1.203
[1]; PTK2B, accession Q14289-2, experiment wp117, direction of change down
  logFC PTK2B: −1.203
[1]; as stated for the structure in the embodiments
  kinases the bifunctional compound degrades: AAK1, AURKA, BMP2K, CAMKK1, CDK16, CDK4, CDK6, EIF2AK2, FER, GAK, LCK, LIMK2, MAP3K11, MAPK8, MAPK9, NEK9, PLK4, PTK2B, SIK2, STK17A, STK17B, ULK1, ULK3, and WEE1
[1]; experiment wp045, direction of change down
  logFC LCK (P06239-3): −0.33
[1]; experiment wp117
  logFC CDK16 (Q00536-2): −0.5528
[1]; kinases significantly downregulated vs DMSO (fold change cutoff −1.25, P-value<0.01), ≤8 h, 0.1-5 μM degrader, 7 cell lines
  Kinase hits: AAK1, AURKA, BMP2K, CAMKK1, CDK16, CDK4, CDK6, EIF2AK2, FER, GAK, LCK, LIMK2, MAP3K11, MAPK8, MAPK9, NEK9, PLK4, PTK2B, SIK2, STKI7A, STKI7B, ULK1, ULK3, WEE1
[1]; number of degraded kinases per library compound
  Total no. kinase hits: 24
[2]; experiment wp045
  logFC of SIK2: −0.5292
[2]; experiment wp117
  logFC of SIK2: −0.3766
  logFC SIK2 (Q9H0K1): −0.3766
[2]; SIK2 (Q9H0K1), experiment wp045, down
  logFC SIK2: −0.5292
[3]
  logFC: −0.869 and −1.105
[3]; experiment wp045
  logFC ULK1: −0.869
[3]; experiment wp117
  logFC ULK1: −1.105
[4]; experiment wp117
  logFC of WEE1: −1.777
  logFC WEE1 (P30291-1): −1.777
[4]; experiment wp045
  logFC WEE1 (P30291-1): −1.876

## Cc1ncsc1-c1ccc([C@H](C)NC(=O)[C@@H]2C[C@@H](O)CN2C(=O)[C@@H](NC(=O)CCOCCOCCN2CCN(c3ccc(Nc4ncc(Cl)c(Nc5ccccc5S(=O)(=O)C(C)C)n4)cc3)CC2)C(C)(C)C)cc1 [FMF.06.098.1]
[1]; [5]
  logFC: −0.5246
  logFC AURKB: −0.5246
[1]; [6]
  logFC: −0.6726
  logFC AURKB: −0.6726
[1]; Accession O60566-3, experiment wp108, direction down
  logFC BUB1B: −0.4426
[1]; Accession O60566-3, experiment wp131, direction down
  logFC BUB1B: −0.4232
[1]; Accession P48730-2, experiment wp108, direction down
  logFC CSNK1D: −0.3812
[1]; Accession P48730-2, experiment wp114, direction down
  logFC CSNK1D: −0.4039
[1]; BUB1B (O60566-3), experiment wp108
  logFC BUB1B: −0.4426
[1]; BUB1B (O60566-3), experiment wp131
  logFC BUB1B: −0.4232
[1]; CDK9 (P50750-2) protein abundance, degrader vs DMSO, down
  logFC: −0.7233 and −0.6791
[1]; CSNK1D P48730-2, experiment wp108
  logFC CSNK1D: −0.3812
[1]; CSNK1D P48730-2, experiment wp114
  logFC CSNK1D: −0.4039
[1]; Experiment wp108
  logFC CDK9 (P50750-2): −0.7233
[1]; Experiment wp131, direction down
  logFC PRKAA1 (Q13131-2): −0.3695
[1]; FER (P16591-3), experiment wp114, direction down
  logFC: −0.3986
[1]; FER P16591-3, experiment wp114
  logFC of FER: −0.3986
[1]; experiment wp108, direction of change down
  logFC FGFR1 (P11362-21): −0.4121
[1]; experiment wp131
  logFC ABL2 (P42684-5): −0.6443
  logFC CDK9 (P50750-2): −0.6791
  logFC PRKAA1 (Q13131-2): −0.3695
  logFC of ABL2 (P42684-5): −0.6443
[1]; protein FGFR1 (P11362-21), experiment wp108, down
  logFC FGFR1: −0.4121
[2]; experiment wp114
  logFC of SIK2: −0.4985
[2]; experiment wp131
  logFC of SIK2: −0.602
  logFC SIK2 (Q9H0K1): −0.602
[2]; Experiment wp114
  logFC SIK2 (Q9H0K1): −0.4985
[3]
  logFC: −0.688 and −0.9629
[3]; experiment wp108
  logFC ULK1: −0.688
[3]; experiment wp131
  logFC ULK1: −0.9629
[4]; Experiment wp108
  logFC WEE1 (P30291-1): −1.98
[4]; experiment wp108
  logFC of WEE1: −1.98
[4]; experiment wp131
  logFC of WEE1: −2.183
  logFC WEE1 (P30291-1): −2.183
